Reference: ChEMBL document CHEMBL1155960, “Design, synthesis and preliminary biological evaluation of acridine compounds as potential agents for a combined targeted chemo-radionuclide therapy approach to melanoma” (Bioorg Med Chem, 2008)

How the values were obtained:
[1] = mouse, in vivo, iv, 3 h
Description: Biodistribution in intestinal content of C57BL/6 mouse bearing mouse B16-F0 cells at 0.74 to 0.92 MBq, iv after 3 hrs

[2] = system: Spleen; settings: mouse, in vivo, iv, 3 h
Description: Biodistribution in spleen of C57BL/6 mouse bearing mouse B16-F0 cells at 0.74 to 0.92 MBq, iv after 3 hrs

[3] = system: Brain; settings: mouse, in vivo, iv, 1 h
Description: Biodistribution in brain of C57BL/6 mouse bearing mouse B16-F0 cells at 0.74 to 0.92 MBq, iv after 1 hr

[4] = mouse, in vivo, iv, 72 h
Description: Biodistribution in melanoma of C57BL/6 mouse bearing mouse B16-F0 cells at 0.74 to 0.92 MBq, iv after 72 hrs

[5] = mouse, in vivo, iv, 1 h
Description: Biodistribution in uvea of C57BL/6 mouse bearing mouse B16-F0 cells at 0.74 to 0.92 MBq, iv after 1 hr

[6] = mouse, in vivo, iv, 6 h
Description: Biodistribution in uvea of C57BL/6 mouse bearing mouse B16-F0 cells at 0.74 to 0.92 MBq, iv after 6 hrs

[7] = system: Brain; settings: mouse, in vivo, iv, 3 h
Description: Biodistribution in brain of C57BL/6 mouse bearing mouse B16-F0 cells at 0.74 to 0.92 MBq, iv after 3 hrs

[8] = system: Muscle tissue; settings: mouse, in vivo, iv, 3 h
Description: Biodistribution in muscle of C57BL/6 mouse bearing mouse B16-F0 cells at 0.74 to 0.92 MBq, iv after 3 hrs

[9] = system: Lung; settings: mouse, in vivo, iv, 6 h
Description: Biodistribution in lung of C57BL/6 mouse bearing mouse B16-F0 cells at 0.74 to 0.92 MBq, iv after 6 hrs

[10] = system: Kidney; settings: mouse, in vivo, iv, 6 h
Description: Biodistribution in kidney of C57BL/6 mouse bearing mouse B16-F0 cells at 0.74 to 0.92 MBq, iv after 6 hrs

[11] = physchem; settings: phosphate buffer solution, pH 7.4
Description: Partition coefficient, log P in phosphate buffer solution at pH 7.4

[12] = system: Kidney; settings: mouse, in vivo, iv, 1 h
Description: Biodistribution in kidney of C57BL/6 mouse bearing mouse B16-F0 cells at 0.74 to 0.92 MBq, iv after 1 hr

[13] = system: Kidney; settings: mouse, in vivo, iv, 3 h
Description: Biodistribution in kidney of C57BL/6 mouse bearing mouse B16-F0 cells at 0.74 to 0.92 MBq, iv after 3 hrs

[14] = system: Blood; settings: mouse, in vivo, iv, 3 h
Description: Biodistribution in blood of C57BL/6 mouse bearing mouse B16-F0 cells at 0.74 to 0.92 MBq, iv after 3 hrs

[15] = system: Liver; settings: mouse, in vivo, iv, 3 h
Description: Biodistribution in liver of C57BL/6 mouse bearing mouse B16-F0 cells at 0.74 to 0.92 MBq, iv after 3 hrs

[16] = mouse, in vivo, iv, 6 h; remark: listed apart in the source
Description: Biodistribution in intestinal content of C57BL/6 mouse bearing mouse B16-F0 cells at 0.74 to 0.92 MBq, iv after 6 hrs

[17] = mouse, in vivo, iv, 3 h; remark: listed apart in the source
Description: Biodistribution in uvea of C57BL/6 mouse bearing mouse B16-F0 cells at 0.74 to 0.92 MBq, iv after 3 hrs

[18] = mouse, in vivo, iv, 72 h; remark: listed apart in the source
Description: Biodistribution in uvea of C57BL/6 mouse bearing mouse B16-F0 cells at 0.74 to 0.92 MBq, iv after 72 hrs

[19] = system: Liver; settings: mouse, in vivo, iv, 24 h
Description: Biodistribution in liver of C57BL/6 mouse bearing mouse B16-F0 cells at 0.74 to 0.92 MBq, iv after 24 hrs

[20] = system: Muscle tissue; settings: mouse, in vivo, iv, 6 h
Description: Biodistribution in muscle of C57BL/6 mouse bearing mouse B16-F0 cells at 0.74 to 0.92 MBq, iv after 6 hrs

[21] = system: Blood; settings: mouse, in vivo, iv, 1 h
Description: Biodistribution in blood of C57BL/6 mouse bearing mouse B16-F0 cells at 0.74 to 0.92 MBq, iv after 1 hr

[22] = mouse, in vivo, iv, 24 h
Description: Biodistribution in uvea of C57BL/6 mouse bearing mouse B16-F0 cells at 0.74 to 0.92 MBq, iv after 24 hrs

[23] = system: Spleen; settings: mouse, in vivo, iv, 1 h
Description: Biodistribution in spleen of C57BL/6 mouse bearing mouse B16-F0 cells at 0.74 to 0.92 MBq, iv after 1 hr

[24] = system: Lung; settings: mouse, in vivo, iv, 1 h
Description: Biodistribution in lung of C57BL/6 mouse bearing mouse B16-F0 cells at 0.74 to 0.92 MBq, iv after 1 hr

[25] = mouse, in vivo, iv, 1 h; remark: listed apart in the source
Description: Biodistribution in intestinal content of C57BL/6 mouse bearing mouse B16-F0 cells at 0.74 to 0.92 MBq, iv after 1 hr

[26] = system: Lung; settings: mouse, in vivo, iv, 3 h
Description: Biodistribution in lung of C57BL/6 mouse bearing mouse B16-F0 cells at 0.74 to 0.92 MBq, iv after 3 hrs

[27] = system: Muscle tissue; settings: mouse, in vivo, iv, 1 h
Description: Biodistribution in muscle of C57BL/6 mouse bearing mouse B16-F0 cells at 0.74 to 0.92 MBq, iv after 1 hr

[28] = mouse, in vivo, iv, 1 h; remark: listed apart in the source
Description: Biodistribution in stomach content of C57BL/6 mouse bearing mouse B16-F0 cells at 0.74 to 0.92 MBq, iv after 1 hr

[29] = system: Liver; settings: mouse, in vivo, iv, 1 h
Description: Biodistribution in liver of C57BL/6 mouse bearing mouse B16-F0 cells at 0.74 to 0.92 MBq, iv after 1 hr

[30] = mouse, in vivo, iv, 6 h; remark: listed apart in the source
Description: Biodistribution in stomach content of C57BL/6 mouse bearing mouse B16-F0 cells at 0.74 to 0.92 MBq, iv after 6 hrs

[31] = system: Liver; settings: mouse, in vivo, iv, 6 h
Description: Biodistribution in liver of C57BL/6 mouse bearing mouse B16-F0 cells at 0.74 to 0.92 MBq, iv after 6 hrs

[32] = mouse, in vivo, iv, 72 h; remark: listed apart in the source
Description: Drug excretion in mouse B16-F0 cells bearing C57BL/6 mouse urine at 0.74 to 0.92 MBq, iv after 72 hrs

[33] = mouse, in vivo, iv, 72 h; remark: listed apart in the source
Description: Drug excretion in mouse B16-F0 cells bearing C57BL/6 mouse feces at 0.74 to 0.92 MBq, iv after 72 hrs

[34] = mouse, in vivo, iv, 3 h; remark: listed apart in the source
Description: Biodistribution in stomach content of C57BL/6 mouse bearing mouse B16-F0 cells at 0.74 to 0.92 MBq, iv after 3 hrs

`CCN(CC)CCNC(=O)c1cccc2c(=O)c3cc(I)ccc3[nH]c12.Cl` showed a Drug uptake [1] of 27.81 % ID/g, a Drug uptake [2] of 9.9 % ID/g and a Drug uptake [3] of 1.6 % ID/g. The Drug uptake [4] was 17.5 % ID/g, the Drug uptake [5] was 15.2 % ID/g and the Drug uptake [6] was 19.5 % ID/g. For the same compound, the Drug uptake [7] was 1.2 % ID/g, the Drug uptake [8] was 1.4 % ID/g and the Drug uptake [9] was 10 % ID/g. For the same compound, the Drug uptake [10] was 8.9 % ID/g, the logD [11] was 0.27 and the Drug uptake [12] was 17.6 % ID/g. The Drug uptake [13] was 13 % ID/g, the Drug uptake [14] was 1.4 % ID/g and the Drug uptake [15] was 9.3 % ID/g. For the same compound, the Drug uptake [16] was 32.9 % ID/g, the Drug uptake [17] was 16.9 % ID/g and the Drug uptake [18] was 26.4 % ID/g. It also gave a Drug uptake [19] of 1.2 % ID/g, a Drug uptake [20] of 0.9 % ID/g and a Drug uptake [21] of 2.08 % ID/g. The Drug uptake [22] was 27.5 % ID/g, the Drug uptake [23] was 13.9 % ID/g and the Drug uptake [24] was 23.9 % ID/g. The Drug uptake [25] was 22.7 % ID/g, the Drug uptake [26] was 14 % ID/g and the Drug uptake [27] was 1.9 % ID/g.
`CCN(CC)CCNC(=O)c1ccc(I)cc1.Cl` showed a Drug uptake [1] of 3.7 % ID/g, a Drug uptake [28] of 10.1 % ID/g and a Drug uptake [2] of 0.8 % ID/g. For the same compound, the Drug uptake [3] was 1.5 % ID/g, the Drug uptake [29] was 5.9 % ID/g and the Drug uptake [4] was 0.88 % ID/g. The Drug uptake [5] was 13.1 % ID/g, the Drug uptake [6] was 13 % ID/g and the Drug uptake [7] was 0.8 % ID/g. For the same compound, the Drug uptake [8] was 0.4 % ID/g, the Drug uptake [9] was 1 % ID/g and the Drug uptake [10] was 1.6 % ID/g. The logD [11] was 1.34, the Drug uptake [12] was 7.3 % ID/g and the Drug uptake [30] was 4.5 % ID/g. The Drug uptake [31] was 2.6 % ID/g, the Drug uptake [13] was 3.1 % ID/g and the Drug uptake [14] was 0.2 % ID/g. For the same compound, the Drug uptake [15] was 3.3 % ID/g, the Drug uptake [32] was 83.1 %ID and the Drug uptake [16] was 3.3 % ID/g. For the same compound, the Drug uptake [17] was 12 % ID/g, the Drug uptake [18] was 3.8 % ID/g and the Drug uptake [19] was 0.4 % ID/g. It also gave a Drug uptake [20] of 0.1 % ID/g, a Drug uptake [21] of 1.1 % ID/g and a Drug uptake [33] of 4.8 %ID. For the same compound, the Drug uptake [22] was 6.1 % ID/g, the Drug uptake [23] was 4 % ID/g and the Drug uptake [24] was 5.5 % ID/g. For the same compound, the Drug uptake [25] was 7.4 % ID/g, the Drug uptake [34] was 4.3 % ID/g and the Drug uptake [26] was 2 % ID/g. The Drug uptake [27] was 1.3 % ID/g.
`CCN(CC)CCNC(=O)c1cccc2c(=O)c3cc([125I])ccc3[nH]c12.Cl` gave a Drug uptake [32] of 10.4 %ID and a Drug uptake [33] of 38.4 %ID.
